Results from patent US7670604B2, “Vimentin directed diagnostics and therapeutics for multidrug resistant neoplastic disease” (Aurelium Biopharma, Inc., priority 2002, dated 2010).
pIC50: −log10 of the molar value. Entries after “also recorded” stand apart in the source; their conditions may differ.

Assays:
[1] = Rowland et al. 1993; cited from earlier work
E3 target cells = settings: Pietersz et al. 1988; cited from earlier work
lysosomal hydrolases = settings: cited from earlier work
MDA cells = assay: Induction of surface exposure of vimentin by drugs, intact cell radioimmunoassay; assay type: cell-based; settings: 1 or 10 μM taxol, 1 or 10 μM doxorubicin, 0.1 or 1 μM mitoxanthrone, 12 to 16 hours
[2] = system: hematological tumor cells; assay: Vimentin vaccination of mice injected with hematological tumor cells; assay type: in vivo; settings: mice vaccinated prior to injection of the tumor cells
[3] = system: antigen-positive E3 cell line; settings: Krauer et al. 1992, read-out: IC50 (cytotoxicities); cited from earlier work

## CC(=O)[C@]1(O)Cc2c(O)c3c(c(O)c2[C@@H](O[C@H]2C[C@H](N)[C@H](O)[C@H](C)O2)C1)C(=O)c1ccccc1C3=O [Ida, Idarubicin]
[1]
  activities: 12 nM
E3 target cells
  pIC50: 6.92

## COc1cccc2c1C(=O)c1c(O)c3c(c(O)c1C2=O)CC(O)(C(C)=O)CC3OC1CC(NC(=O)C(CC(C)C)NC(=O)C(C)N)C(O)C(C)O1 (stereo not drawn) [Ala-Leu-Dau derivative]
Lysosomal hydrolases
  time for conversion back to the free drug: 2 h

## COc1cccc2c1C(=O)c1c(O)c3c(c(O)c1C2=O)C[C@@](O)(C(=O)CO)C[C@@H]3O[C@H]1C[C@H](N)[C@H](O)[C@H](C)O1 [doxorubicin]
MDA cells
  induction of surface exposure of vimentin: slight induction

## CC(=O)O[C@H]1C(=O)[C@@]2(C)[C@H]([C@H](OC(=O)c3ccccc3)[C@]3(O)C[C@H](OC(=O)[C@H](O)[C@@H](NC(=O)c4ccccc4)c4ccccc4)C(C)=C1C3(C)C)[C@]1(OC(C)=O)CO[C@@H]1C[C@@H]2O [taxol]
MDA cells
  induction of surface exposure of vimentin: slight induction

## O=C1c2c(O)ccc(O)c2C(=O)c2c(NCCNCCO)ccc(NCCNCCO)c21 [mitoxanthrone]
MDA cells
  induction of surface exposure of vimentin: slight induction; also recorded: most significant effect

## vimentin: purified full length murine vimentin protein used as vaccine antigen, may be given with adjuvant
[2]
  tumor size versus mice not vaccinated: smaller

## O=c1[nH]c(=O)n([C@H]2C[C@H](O)[C@@H](CO)O2)cc1F [FUDR, 5-fluoro-2′-deoxyuridine]
[3]
  pIC50: 9.40
